Data from ChEMBL document CHEMBL2331118, “A facile three-component [3+2]-cycloaddition for the regioselective synthesis of highly functionalised dispiropyrrolidines acting as antimycobacterial agents” (Bioorg Med Chem Lett, 2013).
Values after ≈ are worked out from the molar mass of the structure shown.

Assays:
[1] = system: Mycobacterium tuberculosis; test: Antitubercular activity against Mycobacterium tuberculosis H37Rv by BacTiter-Gl Microbial Cell Viability assay; format: functional, organism-based
[2] = system: Vero; test: Cytotoxicity against african green monkey Vero cells after 72 hrs by MTT assay; format: cell-based; conditions: Chlorocebus sabaeus
[3] = system: Mycobacterium tuberculosis; test: Antitubercular activity against Mycobacterium tuberculosis H37Rv by microdilution alamar Blue broth assay; format: functional, organism-based
[4] = system: Mycobacterium tuberculosis; test: Ratio of cycloserine EC90 to compound EC90 for Mycobacterium tuberculosis H37Rv by BacTiter-Gl Microbial Cell Viability assay; format: functional
[5] = system: Mycobacterium tuberculosis; test: Ratio of cycloserine EC50 to compound EC50 for Mycobacterium tuberculosis H37Rv by BacTiter-Gl Microbial Cell Viability assay; format: functional
[6] = system: Mycobacterium tuberculosis; test: Ratio of pyrimethamine MIC to compound MIC for Mycobacterium tuberculosis H37Rv by BacTiter-Gl Microbial Cell Viability assay; format: functional
[7] = system: Mycobacterium tuberculosis; test: Ratio of cycloserine MIC to compound MIC for Mycobacterium tuberculosis H37Rv by BacTiter-Gl Microbial Cell Viability assay; format: functional
[8] = system: Mycobacterium tuberculosis; test: Ratio of pyrimethamine EC50 to compound EC50 for Mycobacterium tuberculosis H37Rv by BacTiter-Gl Microbial Cell Viability assay; format: functional
[9] = system: Mycobacterium tuberculosis; test: Ratio of pyrimethamine EC90 to compound EC90 for Mycobacterium tuberculosis H37Rv by BacTiter-Gl Microbial Cell Viability assay; format: functional

| SMILES | EC50 [1] [µM] | EC90 [1] [µM] | MIC [1] [µM] | IC50 [2] [µg/mL] | EC50 [3] [µM] | EC90 [3] [µM] | MIC [3] [µM] | Ratio [4] | Ratio EC50 [5] | Ratio [6] | Ratio [7] | Ratio EC50 [8] | Ratio [9] |
| --- | --- | --- | --- | --- | --- | --- | --- | --- | --- | --- | --- | --- | --- |
| CN1C[C@H](c2ccc(C(F)(F)F)cc2)[C@]2(Cc3ccccc3C2=O)[C@]12C(=O)c1cccc3cccc2c13 | 3.21 | 12.3 | 50 (≈ 24.9 µg/mL) | > 62.5 | 23.4 | > 100 |  |  |  |  |  |  |  |
| CN1C[C@H](c2ccc(OC(F)(F)F)cc2)[C@]2(Cc3ccccc3C2=O)[C@]12C(=O)c1cccc3cccc2c13 | 8.51 | 26.1 | 50 (≈ 25.7 µg/mL) | > 62.5 | 36.6 | > 100 |  |  |  |  |  |  |  |
| CN1C[C@H](c2cncc(-c3ccc(F)cc3)c2)[C@]2(Cc3ccccc3C2=O)[C@]12C(=O)c1cccc3cccc2c13 | 64.5 | > 100 |  | > 62.5 | > 100 | > 100 |  |  |  |  |  |  |  |
| CN1C[C@H](c2ccc(C(=O)O)cc2)[C@]2(Cc3ccccc3C2=O)[C@]12C(=O)c1cccc3cccc2c13 | 20.7 | > 100 | 100 (≈ 47.4 µg/mL) | > 62.5 | 69.2 | 99.7 | 100 (≈ 47.4 µg/mL) |  |  |  |  |  |  |
| CN1C[C@H](c2cccc([N+](=O)[O-])c2)[C@]2(Cc3ccccc3C2=O)[C@]12C(=O)c1cccc3cccc2c13 | 10.1 | > 100 |  | > 62.5 | 77.5 | > 100 |  |  |  |  |  |  |  |
| COc1ccc([C@H]2CN(C)[C@@]3(C(=O)c4cccc5cccc3c45)[C@@]23Cc2ccccc2C3=O)cc1 | 13.4 | 62.4 | 100 (≈ 46 µg/mL) | > 62.5 | 40.9 | > 100 |  |  |  |  |  |  |  |
| CN1C[C@H](c2cccc3c2OCO3)[C@]2(Cc3ccccc3C2=O)[C@]12C(=O)c1cccc3cccc2c13 | 11.5 | > 100 | 100 (≈ 47.4 µg/mL) | > 62.5 | 63.8 | > 100 |  |  |  |  |  |  |  |
| CN(C)c1ccc([C@H]2CN(C)[C@@]3(C(=O)c4cccc5cccc3c45)[C@@]23Cc2ccccc2C3=O)cc1 | 9.87 | 55.3 | 100 (≈ 47.3 µg/mL) | > 62.5 | 56 | > 100 |  |  |  |  |  |  |  |
| CN1C[C@H](c2ccc(N3CCOCC3)cc2)[C@]2(Cc3ccccc3C2=O)[C@]12C(=O)c1cccc3cccc2c13 | 18.9 | > 100 |  | > 62.5 | > 100 | > 100 |  |  |  |  |  |  |  |
| COc1ccc(OC)c([C@H]2CN(C)[C@@]3(C(=O)c4cccc5cccc3c45)[C@@]23Cc2ccccc2C3=O)c1 | 9.56 | > 100 |  | > 62.5 | 68 | > 100 |  |  |  |  |  |  |  |
| CN1C[C@H](c2ccc(N3CCCCC3)cc2)[C@]2(Cc3ccccc3C2=O)[C@]12C(=O)c1cccc3cccc2c13 | 17.8 | > 100 |  | > 62.5 | > 100 | > 100 |  |  |  |  |  |  |  |
| CN1C[C@H](c2ccccc2)[C@]2(Cc3ccccc3C2=O)[C@]12C(=O)c1cccc3cccc2c13 | > 100 | > 100 |  | > 62.5 | > 100 | > 100 |  |  |  |  |  |  |  |
| CN1C[C@H](c2ccc(Cl)cc2)[C@]2(Cc3ccccc3C2=O)[C@]12C(=O)c1cccc3cccc2c13 | 6.27 | 29.6 | 50 (≈ 23.2 µg/mL) | > 62.5 | 68.5 | > 100 |  |  |  |  |  |  |  |
| CN1C[C@H](c2ccc(Br)cc2)[C@]2(Cc3ccccc3C2=O)[C@]12C(=O)c1cccc3cccc2c13 | 2.2 | 10.8 | 12.5 (≈ 6.36 µg/mL) | > 62.5 | 15.1 | > 100 |  | 2.45 | 10.7 | >8 | >8 | 11 | 4.3 |
| NCC[C@H](O)C(=O)N[C@@H]1C[C@H](N)[C@@H](O[C@H]2O[C@H](CN)[C@@H](O)[C@H](O)[C@H]2O)[C@H](O)[C@H]1O[C@H]1O[C@H](CO)[C@@H](O)[C@H](N)[C@H]1O [AMIKACIN] | 0.07 | 0.12 | 0.16 (≈ 0.0937 µg/mL) | > 62.5 | 0.12 | 0.14 | 0.16 (≈ 0.0937 µg/mL) |  |  |  |  |  |  |
| N[C@@H]1CONC1=O [CYCLOSERINE] | 23.6 | 26.4 | 100 (≈ 10.2 µg/mL) | > 62.5 | 24.8 | 28 | 100 (≈ 10.2 µg/mL) |  |  |  |  |  |  |
| CC[C@@H](CO)NCCN[C@@H](CC)CO [ETHAMBUTOL] | 1.5 | 1.64 | 6.25 (≈ 1.28 µg/mL) | > 62.5 | 3.45 | > 200 |  |  |  |  |  |  |  |
| NNC(=O)c1ccncc1 [ISONIAZID] | 0.13 | 0.2 | 0.31 (≈ 0.0425 µg/mL) | > 62.5 | 0.19 | > 5 |  |  |  |  |  |  |  |
| CCc1nc(N)nc(N)c1-c1ccc(Cl)cc1 [PYRIMETHAMINE] | 24.3 | 46.4 | 100 (≈ 24.9 µg/mL) | > 62.5 | 25.1 | 28 | 100 (≈ 24.9 µg/mL) |  |  |  |  |  |  |
| CO[C@H]1/C=C/O[C@@]2(C)Oc3c(C)c(O)c4c(O)c(c(/C=N/N5CCN(C)CC5)c(O)c4c3C2=O)NC(=O)/C(C)=C\C=C\[C@H](C)[C@H](O)[C@@H](C)[C@@H](O)[C@@H](C)[C@H](OC(C)=O)[C@@H]1C [RIFAMPIN] | 0.02 | 0.03 | 0.04 (≈ 0.0329 µg/mL) | > 62.5 | 0.02 | 0.02 | 0.16 (≈ 0.132 µg/mL) |  |  |  |  |  |  |
